Assay results taken from PubChem BioAssay (NCI).
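All cell lines were grown in 96-well plates and treated with compound for 48 hours. Here, GI50 denotes the concentration required for 50% inhibition of growth. At the TGI there is no net growth.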

What was measured:
Test in all cases: DTP human tumour cell line panel, 48 h
[1] = test system: SF-268 CNS
[2] = test system: SW-620 colon
[3] = test system: TK-10 renal
[4] = test system: SNB-19 CNS
[5] = test system: EKVX NSCLC
[6] = test system: DU-145 prostate
[7] = test system: LOX IMVI melanoma
[8] = test system: HOP-62 NSCLC
[9] = test system: UACC-62 melanoma
[10] = test system: HCC-2998 colon

Row | Structure (SMILES) | GI50 [1] [µM] | TGI [1] [µM] | GI50 [2] [µM] | TGI [2] [µM] | GI50 [3] [µM] | TGI [3] [µM] | GI50 [4] [µM] | TGI [4] [µM] | GI50 [5] [µM] | TGI [5] [µM] | GI50 [6] [µM] | TGI [6] [µM] | GI50 [7] [µM] | TGI [7] [µM] | GI50 [8] [µM] | TGI [8] [µM] | GI50 [9] [µM] | TGI [9] [µM] | TGI [10] [µM]
1 | O=C1C=C(NCCO)c2nccc3c2c1nc1ccccc13 | 26.4 | > 100 | 15.5 | > 100 | 18.7 | 60.8 | 34 | > 100 | 26.5 | 92.2 | 24.8 | > 100 | 15.8 | 95 | 12.3 | 57.8 | 13.4 | 31 | –
2 | N#Cc1c2ccccc2c(Cc2ccc3c(c2)OCCOCCOCCOCCOCCO3)c2ccccc12 | – | 21.1 | – | 32.1 | – | 19.3 | – | 24.5 | – | 35.9 | – | – | – | 22.6 | – | 23.6 | – | 19.8 | 24.7
3 | C/C=C/C(=O)Oc1cccc2cccnc12 | – | 14.5 | – | 38.5 | – | > 100 | – | > 100 | – | > 81.3 | – | – | – | > 84.6 | – | > 100 | – | > 39.5 | 46.1
4 | CC1(C)C(=O)OC(n2cc(F)c(=O)[nH]c2=O)C1=O (stereo not given) | – | > 100 | – | > 100 | – | > 100 | – | > 100 | – | > 100 | – | – | – | > 100 | – | > 100 | – | > 100 | > 100
5 | COc1ccc(CN2C(=O)[C@@H]3Cc4c(OC)c(C)c(OC)c(OC)c4[C@H](/C2=C\c2cc(OC)c(OC)c(C)c2OC)N3C(=O)OC(C)C)cc1 | – | > 100 | – | > 100 | – | > 100 | – | > 100 | – | > 100 | – | – | – | > 100 | – | > 100 | – | > 100 | > 100
6 | CN(C)NC(=O)/C(=C/c1ccc(Cl)cc1)NC(=O)c1ccccc1 | – | > 100 | – | – | – | > 100 | – | > 100 | – | > 100 | – | – | – | > 100 | – | > 100 | – | > 100 | > 100
7 | CCOC(=O)C1=C(C)NC(=O)NC1c1ccc(OC)cc1OC (stereo not given) | – | > 100 | – | > 100 | – | > 100 | – | > 100 | – | > 100 | – | – | – | > 100 | – | > 100 | – | > 100 | > 100
8 | COC(=O)C1=CC2C(=O)OC1C1C(=O)NC(=O)C21 (stereo not given) | – | > 100 | – | > 100 | – | > 100 | – | > 100 | – | – | – | – | – | > 100 | – | > 100 | – | > 100 | > 100
9 | CC1(C)c2ccccc2N2C(c3ccccc3)=NOC21C (stereo not given) | – | > 100 | – | > 100 | – | > 100 | – | > 100 | – | > 100 | – | – | – | > 100 | – | > 100 | – | > 100 | –
10 | CC1OC(n2cc(C(F)(F)F)c(=O)[nH]c2=O)C=CC1=O (stereo not given) | – | > 100 | – | 35.9 | – | 35.3 | – | 30.6 | – | – | – | – | – | 33 | – | 52.3 | – | 47.5 | 32.3
11 | N#C/C(=C\c1c(O)cc(O)cc1O)C(N)=O | – | > 100 | – | > 100 | – | > 100 | – | > 100 | – | > 100 | – | – | – | > 100 | – | > 100 | – | – | > 100
12 | O=C(Oc1ccccc1)N(c1ccccc1)c1ccccc1 | 33.1 | > 100 | 38.8 | > 100 | 37.1 | > 100 | 40.7 | > 100 | 18.7 | > 100 | 42.9 | > 100 | 19.9 | 78.6 | 32.2 | > 100 | 22.3 | > 100 | –
13 | c1ccc(C2=NOC3C4CCC(C4)C23)cc1 (stereo not given) | – | > 100 | – | > 100 | – | > 100 | – | > 100 | – | > 100 | – | – | – | – | – | > 100 | – | > 100 | > 100
14 | CN(c1ccccc1)c1cc2ccccc2nn1 | – | > 100 | – | > 100 | – | > 100 | – | > 100 | – | > 100 | – | – | – | > 100 | – | > 100 | – | > 100 | –
15 | NS(=O)(=O)c1ccc(N=Nc2ccc[nH]c2=O)cc1 | – | > 100 | – | > 100 | – | > 100 | – | > 100 | – | > 100 | – | > 100 | – | > 100 | – | > 100 | – | > 100 | –
16 | O=c1nc2sc3ccccc3c(=O)n2[nH]1 | – | > 100 | – | > 100 | – | > 100 | – | > 100 | – | > 100 | – | – | – | > 100 | – | > 100 | – | > 100 | > 100
